From PubChem BioAssay (NCI)
Values joined by “and” are separate entries in the source; they are usually repeats but may differ in a detail not shown here. Equal entries are not always repeated.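 Test compounds were applied to cells in 96-well plates for 48 hours at 5 doses. Here, GI50 denotes the concentration required for 50% inhibition of growth. TGI: total growth inhibition.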

Legend:
Assay in all cases: DTP human tumour cell line panel, 48 h
[1] = tested on: A549 NSCLC
[2] = tested on: PC-3 prostate
[3] = tested on: UO-31 renal
[4] = tested on: HT29 colon
[5] = tested on: M14 melanoma
[6] = tested on: NCI/ADR-RES ovarian
[7] = tested on: MDA-MB-231 breast
[8] = tested on: U251 CNS
[9] = tested on: CAKI-1 renal
[10] = tested on: SR leukemia

Compound	TGI [1]	TGI [2] [µM]	TGI [3]	TGI [4]	TGI [5]	TGI [6]	TGI [7] [µM]	TGI [8] [µM]	TGI [9]	TGI [10] [µM]	GI50 [3] [µM]	GI50 [5] [µM]	GI50 [10] [µM]	GI50 [6] [µM]	GI50 [7] [µM]	GI50 [8] [µM]	GI50 [9] [µM]	GI50 [1] [µM]	GI50 [2] [µM]	GI50 [4] [µM]
O=C(O)C1C(C(=O)Nc2ccc3c(c2)Cc2ccccc2-3)C2(Cl)C(Cl)=C(Cl)C1(Cl)C2(Cl)Cl (stereo unspecified)	> 100 µM	30	55.5 µM	41.7 µM	42.7 µM	> 100 µM	41.6	29.7	> 100 µM											
C=C/C=C(\NC(=O)C(Cl)(Cl)Cl)[Si](C)(C)C	> 100 µM		> 100 µM	> 100 µM	> 100 µM			> 100		> 100										
C[C@]12CCC[C@H](Cl)C1(O)C[C@H](C(=O)O)CC2 (stereo partly specified)	> 100 µM		> 100 µM	> 100 µM	> 100 µM			> 100	> 100 µM	> 100										
COc1cc2c(cc1OCCOS(C)(=O)=O)N=C[C@@H]1CCCN1C2=O	> 100 µM		33.1 µM	> 100 µM	34.6 µM	26.7 µM	39.3	31.7	32.1 µM	32.9	15.2	18.7	11.1	13.5	16.5	17.1	17.7			
CC(C)C1OC(=O)C=C1Sc1ccccc1 (stereo unspecified)	> 100 µM	> 100		> 100 µM	> 100 µM		> 100	> 100	> 100 µM	> 100										
COc1ccc(/C=C2\CCCCC2=O)cc1	> 100 µM		> 100 µM	> 100 µM	> 100 µM			> 100	> 100 µM											
CC(C)c1ccccc1NC(=O)C(=O)Cc1nc2ccccc2s1	> 100 µM		> 100 µM	> 100 µM	> 100 µM			> 100	> 100 µM	> 100										
Cc1cccc(Oc2nccc(-c3c(-c4ccc(F)cc4)ncn3C3CCNCC3)n2)c1C	> 25 µM	> 23.2	> 19.9 µM	10.8 µM	9.01 µM	> 25 µM	13.9	> 22.6	> 19.8 µM		4.97	4.8		11.5	5.42	7.28	8.79	> 14.3	9.94	4.68
Cc1ccc(C2NC(=S)NC3=C2CCOc2c3ccc3ccccc23)cc1 (stereo unspecified)	> 100 µM	> 100	> 100 µM	> 100 µM	> 100 µM	> 100 µM	> 100	> 100	11.7 µM		> 100	79		96.5	26.3	> 100	3.07	> 100	22.2	8
CC[C@H]1CN2CCc3cc(OC)c(OC)cc3[C@@H]2C[C@@H]1C[C@H]1NCCc2cc(O)c(OC)cc21	0.0652 µM and 0.0527 µM and 0.355 µM		0.15 µM and 1.17 µM	0.0551 µM and 0.0171 µM and 0.047 µM	0.0222 µM and 0.015 µM	> 100 µM and 10.7 µM			0.0847 µM and 0.375 µM			0.00787			0.00901				0.0243	
COc1ccc(C2=NNC(=O)OC2c2ccccc2)cc1 (stereo unspecified)	> 100 µM		> 100 µM	> 100 µM	> 100 µM			> 100	> 100 µM	> 100										
CCn1cc(/C=C/C(C)c2cn(CC)c(=O)[nH]c2=O)c(=O)[nH]c1=O (stereo unspecified)	> 100 µM		> 100 µM	> 100 µM	> 100 µM			> 100	> 100 µM											
CCn1c2c(n(CC)c1=S)-c1c(n(CC)c(=S)n1CC)SSSS2	68.4 µM		21.5 µM	29.2 µM	18.1 µM		10	45.5	33.1 µM	9.17										
COc1cc2c(cc1OC)-c1cc3cc(OC)c(OC)cc3n1CC2	> 100 µM		> 100 µM	56.3 µM	> 100 µM			> 100	> 100 µM	> 100										
CC(=O)c1ccc(NC(=O)CSc2nnc(-c3cc(-c4ccc(C)cc4)nc4ccccc34)o2)cc1	> 100 µM	> 100	4.5 µM		> 100 µM	> 100 µM	5.47	3.92			1.75	5.65		3.14	2.3	1.97		3.01	4.36	
COC1(OC)CC2C=C(S(=O)(=O)c3ccccc3)C1N(Cc1ccccc1)C2=O (stereo unspecified)	> 100 µM		> 100 µM	93.7 µM	67.1 µM			> 100		> 100										
CC(=O)C1CC=C(C)CC1 (stereo unspecified)	> 100 µM		> 100 µM	> 100 µM	> 100 µM			> 100	> 100 µM	> 100										
N#Cc1c(-c2ccc(Cl)cc2)n(O)c2ccccc12	11.9 µM	20.2	9.24 µM	20.9 µM	7.36 µM	4.2 µM	4.38	7.06	5.2 µM		2.6	0.803		1.43	1.51	1.9	1.95	2.6	2.85	4.84
CN(C)c1ccc(N=Cc2c([O-])ccc3ccccc23)cc1.[C-]#[O+].[C-]#[O+].[Ir]	89.3 µM		36.4 µM	40.7 µM	46.1 µM			30.4	40.7 µM	44.1	15.6	20.7	15.4			15.7	22	31.8		19.2
CCCCCCCC/C=C/CCCCCCCC1=NCC[N+]1(CCO)CCO	10.9 µM	6.17	19.7 µM	3.25 µM	5.77 µM	37.7 µM	8.81	2.86	8.32 µM		3.97	2.26		11.8	2.47	1.42	2.41	2.77	1.97	1.38
Brc1ccc(-c2nnc(-c3nn(-c4ccccc4)c4nc5ccccc5nc34)o2)cc1	> 100 µM		> 100 µM	> 100 µM	> 100 µM			> 100	> 100 µM	> 100										
